Values after ≈ are worked out from the molar mass of the structure shown.
What was measured:
Assay type in all cases: cell-based
Proteus vulgaris TB-615 = assay: MIC by agar dilution method, Proteus vulgaris TB-615; conditions: TB615, P. vulgaris TB-615, tobramycin resistant strain, 10^6 CFU/ml, 37° C., 18 to 20 hours, read-out: Minimum Inhibitory Concentration (MIC)
Proteus mirabilis TB-617 = assay: MIC by agar dilution method, Proteus mirabilis TB-617; conditions: TB617, P. mirabilis TB-617 (not marked as resistant), 10^6 CFU/ml, 37° C., 18 to 20 hours, read-out: Minimum Inhibitory Concentration (MIC)
[1] = system: Pseudomonas aeruginosa TB-151; assay: MIC by agar dilution method, Pseudomonas aeruginosa TB-151; conditions: TB151, P. aeruginosa TB-151, tobramycin resistant strain, 10^6 CFU/ml, 37° C., 18 to 20 hours, read-out: Minimum Inhibitory Concentration (MIC)

Question: Which MIC (Proteus vulgaris TB-615) does the source give for `NC[C@H]1O[C@H](O[C@H]2[C@H](O)[C@@H](O[C@H]3O[C@H](CO)[C@@H](O)[C@H](N)[C@H]3O)[C@H](N)C[C@@H]2N)[C@H](N)C[C@@H]1O` [TOB, tobramycin, reference compound] here?
Answer: The MIC was 50 µg/mL (≈ 107 µM).

Question: And the MIC (Proteus mirabilis TB-617)?
Answer: The MIC was 6.2 µg/mL (≈ 13.3 µM).

Question: What about the MIC [1] of the same compound?
Answer: Its MIC is 50 µg/mL (≈ 107 µM).

Question: For `NC[C@H]1O[C@H](O[C@H]2[C@H](O)[C@@H](O[C@H]3O[C@H](CO)[C@@H](O)[C@H](N)[C@H]3O)[C@H](NC3=NCCC[C@@H]3O)C[C@@H]2N)[C@H](N)C[C@@H]1O` [[B], 1N-[(S)(-)-3-hydroxy-3,4,5,6-tetrahydropyridin-2-yl]tobramycin], which MIC (Proteus vulgaris TB-615) is on record?
Answer: Its MIC is 25 µg/mL (≈ 44.3 µM).

Question: And the MIC (Proteus mirabilis TB-617)?
Answer: Its MIC is 3.1 µg/mL (≈ 5.49 µM).

Question: What about the MIC [1] of the same compound?
Answer: Its MIC is 25 µg/mL (≈ 44.3 µM).

Question: With `NC[C@H]1O[C@H](O[C@H]2[C@H](O)[C@@H](O[C@H]3O[C@H](CO)[C@@H](O)[C@H](N)[C@H]3O)[C@H](NC3=NCC[C@@H]3O)C[C@@H]2N)[C@H](N)C[C@@H]1O` [[A], 1N-[(S)(-)-3-hydroxy-1-pyrrolin-2-yl]tobramycin] as the compound, how does the MIC (Proteus vulgaris TB-615) read?
Answer: The MIC was 25 µg/mL (≈ 45.4 µM).

Question: What about the MIC (Proteus mirabilis TB-617) of the same compound?
Answer: Its MIC is 3.1 µg/mL (≈ 5.63 µM).

Question: What about the MIC [1] of the same compound?
Answer: The MIC was 25 µg/mL (≈ 45.4 µM).

From US4248865A, “Novel aminoglycoside derivatives” (Shionogi & Co., Ltd., priority 1978, dated 1981)
